Eleven compounds from ChEMBL document CHEMBL1201862, “PubChem BioAssay data set” (2004) can be followed below.

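Compound exposure: 48 hours, 5 concentrations, 96-well plates. GI50 is the concentration that inhibits growth by half.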 Calls of active or inactive are those of the source. Cut-off read from the data, not from the text of the source: active = GI50 up to about 1.1 µM and inactive = higher.

Holding throughout (assay): DTP human tumour cell line panel, 48 h
Experiment [1] has as its system HT-29.
Experiment [2] deals with SK-OV-3.
The test system of experiment [3] is RXF 393.
The test system of experiment [4] is Hs-578T.
Experiment [5] deals with M14.
For experiment [6], the system named is OVCAR-5.
The subject of experiment [7] is A498.
For experiment [8], the system named is U-251.
In experiment [9] the test system is HOP-62.
Experiment [10] relates to HL-60.
Experiment [11] has as its system HCT-116.
In experiment [12] the test system is 786-0.
Experiment [13] relates to LOX IMVI.
The subject of experiment [14] is IGROV-1.
Experiment [15] has as its system Malme-3M.
The subject of experiment [16] is MDA-MB-435.
In experiment [17] the test system is BT-549.
Experiment [18] relates to COLO 205.
The test system of experiment [19] is T47D.
Experiment [20] deals with CAKI-1.

For `CCNC(=S)N/N=C/c1cc([N+](=O)[O-])ccc1O`, the GI50 (commonly the concentration at which growth is held to half of that of the control) was 41.8 µM (inactive) in experiment [1]; 15 µM (inactive) in experiment [2]; 62.2 µM (inactive) in experiment [3]; 70.5 µM (inactive) in experiment [4]; 33.7 µM (inactive) in experiment [5]; > 100 µM (inactive) in experiment [6]. For the same compound, the GI50 in [7] was 13.2 µM (inactive); in experiment [8] it was 16.9 µM (inactive); in experiment [9], 32.7 µM (inactive); in experiment [10], 11.9 µM (inactive); in experiment [11], 16.9 µM (inactive); in experiment [12], 20.5 µM (inactive). Besides, the GI50 in experiment [13] is 15.7 µM (inactive); in [14], 22.4 µM (inactive); in experiment [15], 26.5 µM (inactive); in experiment [16], 37.2 µM (inactive); in experiment [17], 36.9 µM (inactive); in experiment [18], 28.3 µM (inactive). The GI50 in experiment [19] is 19.9 µM (inactive).
For `Nc1nc(Nc2ccc(Cl)cc2)sc1C(=O)c1cccs1`, the GI50 was 6.18 µM (inactive) in [1]; 22.9 µM (inactive) in [2]; 17.2 µM (inactive) in experiment [3]; 15.2 µM (inactive) in experiment [4]; > 100 µM (inactive) in [5]; > 100 µM (inactive) in experiment [6]. Besides, the GI50 is 19.1 µM (inactive) in experiment [7]; 14.7 µM (inactive) in [8]; 25.6 µM (inactive) in experiment [9]; > 100 µM (inactive) in experiment [10]; 14.7 µM (inactive) in experiment [11]; 11.8 µM (inactive) in experiment [12]. The GI50 in experiment [13] was > 100 µM (inactive); in [14], 39.6 µM (inactive); in experiment [15], 99.3 µM (inactive); in experiment [16] it was > 100 µM (inactive); in experiment [17] it was 40.5 µM (inactive); in [18], > 100 µM (inactive). Besides, in [19], the GI50 was 77.8 µM (inactive).
With `Cn1c(=O)c2c(nc(N3CCOCC3)n2CCCNCC(O)c2ccc(O)c(O)c2)n(C)c1=O` (centres undefined), the GI50 in experiment [20], in [1], in experiment [2], in experiment [3], in [4] and in [5] was > 100 µM (inactive) each time. Further, the GI50 is 23.9 µM (inactive) in [6]; > 100 µM (inactive) in [7]; > 100 µM (inactive) in [8]; > 100 µM (inactive) in experiment [9]; > 100 µM (inactive) in [11]; > 100 µM (inactive) in [12]. For the same compound, the GI50 was > 100 µM (inactive) in experiment [13]; > 100 µM (inactive) in experiment [14]; > 100 µM (inactive) in experiment [15]; 38.9 µM (inactive) in experiment [16]; > 100 µM (inactive) in [17]; > 100 µM (inactive) in experiment [18]. The GI50 in [19] is > 100 µM (inactive).
Consider `CCN(CC)C(=S)SS(=O)(=O)c1ccc(F)cc1`, for which the GI50 in experiment [20] was 41 µM (inactive); in [1], 22 µM (inactive); in experiment [2], > 100 µM (inactive); in [3] it was 18.8 µM (inactive); in experiment [4] it was 63 µM (inactive); in experiment [5], 29.1 µM (inactive). In addition, the GI50 is > 100 µM (inactive) in experiment [6]; > 100 µM (inactive) in experiment [7]; 18.8 µM (inactive) in [8]; 40.6 µM (inactive) in [9]; 25.3 µM (inactive) in experiment [11]; 73.3 µM (inactive) in experiment [12]. In addition, the GI50 was 19.6 µM (inactive) in experiment [13]; 19.9 µM (inactive) in experiment [15]; 38.9 µM (inactive) in [16]; 46.1 µM (inactive) in [17]; > 100 µM (inactive) in [18]; 85.1 µM (inactive) in experiment [19].
As for `CCOC(=O)CSc1nc(-c2ccccc2)c(C#N)c(=O)[nH]1`, the GI50 in experiment [20], in [1], in experiment [2], in experiment [3], in experiment [4] and in [5] was > 100 µM (inactive) in each case. In addition, the GI50 in experiment [6], in experiment [7], in experiment [8], in experiment [9], in experiment [10] and in experiment [11] was > 100 µM (inactive) in each case. Moreover, the GI50 in experiment [12], in experiment [14], in experiment [16], in [17], in experiment [18] and in [19] was > 100 µM (inactive) in each case.
Take `COC(=O)[C@@H]1[C@@H]2NC(=S)N[C@@]1(C)Oc1ccccc12`: the GI50 is 76.9 µM (inactive) in experiment [20]; 28.5 µM (inactive) in experiment [1]; 47.8 µM (inactive) in [2]; > 100 µM (inactive) in experiment [3]; 51.9 µM (inactive) in experiment [4]; 42.8 µM (inactive) in [5]. The GI50 in experiment [6] was 60.4 µM (inactive); in experiment [7], > 100 µM (inactive); in experiment [8] it was 38.3 µM (inactive); in experiment [9], 89.3 µM (inactive); in [11] it was 67.6 µM (inactive); in [12] it was 75.7 µM (inactive). The GI50 was 37.6 µM (inactive) in [13]; 49 µM (inactive) in experiment [14]; 52 µM (inactive) in [15]; 10.1 µM (inactive) in experiment [16]; 83.6 µM (inactive) in experiment [17]; 37.5 µM (inactive) in [18]. Also, the GI50 in [19] is > 100 µM (inactive).
Take `O[C@H]1[C@H](O)[C@@H](O)[C@@]2(O)CC[C@@H]1N2`: the GI50 in experiment [20], in [1], in experiment [2], in [3], in experiment [4] and in experiment [5] was > 100 µM (inactive) each time. The GI50 in experiment [6], in [7], in [8], in experiment [9], in [11] and in experiment [12] was > 100 µM (inactive) each time. In addition, the GI50 in [13], in [14], in [15], in [16], in [17] and in [18] was > 100 µM (inactive) in each case. In addition, the GI50 in experiment [19] is > 100 µM (inactive).
Regarding `CCOC(=O)CN1C(=O)NC(C)(c2ccccc2)C1=O` (centres undefined), the GI50 in [20], in experiment [1], in experiment [2], in experiment [3], in [4] and in experiment [5] was > 100 µM (inactive) in each case. Moreover, the GI50 in experiment [6], in [7], in experiment [8], in experiment [9], in [11] and in experiment [12] was > 100 µM (inactive) throughout. Also, the GI50 in [13], in experiment [14], in experiment [16], in experiment [17], in experiment [18] and in experiment [19] was > 100 µM (inactive) in each case.
Turning to `COc1cc2cc(C(=O)N3CC(CCl)c4c3cc(O)c3ccccc43)[nH]c2c(OC)c1OC` (centres undefined), the GI50 in [1], in experiment [2], in [3], in experiment [4], in [5] and in experiment [6] was < 0.005 µM (active) throughout. In addition, the 50% growth inhibitory concentration (GI50) in experiment [7], in experiment [8], in experiment [9], in experiment [10], in [11] and in experiment [12] was < 0.005 µM (active) in each case. For the same compound, the GI50 in experiment [13], in experiment [15], in [16], in experiment [17], in experiment [18] and in [19] was < 0.005 µM (active) each time.
`CC(=O)Nc1ccc2cc3[nH]c4cc(NC(C)=O)ccc4c3nc2c1`: the GI50 in experiment [20], in [1], in experiment [2], in experiment [3], in [4] and in experiment [5] was > 100 µM (inactive) in each case. The GI50 in [6] is > 100 µM (inactive); in experiment [7] it was > 100 µM (inactive); in [8], 77.4 µM (inactive); in [9], > 100 µM (inactive); in [11], > 100 µM (inactive); in [12], > 100 µM (inactive). Further, the GI50 in [13], in experiment [14], in experiment [15], in experiment [16], in [17] and in experiment [18] was > 100 µM (inactive) throughout. For the same compound, the GI50 in experiment [19] is 31.3 µM (inactive).
For the compound `O=C(CCCn1ccnc1[N+](=O)[O-])NCCn1ccnc1`, the GI50 in experiment [20], in experiment [1], in experiment [2], in experiment [4], in [5] and in experiment [6] was > 100 µM (inactive) throughout. The GI50 in experiment [7], in experiment [8], in experiment [9], in experiment [10], in experiment [11] and in [12] was > 100 µM (inactive) in each case. Also, the GI50 in experiment [14] is > 100 µM (inactive); in experiment [15] it was > 100 µM (inactive); in experiment [16], > 100 µM (inactive); in experiment [17] it was > 100 µM (inactive); in experiment [18] it was 67 µM (inactive); in experiment [19], > 100 µM (inactive).
